This note sets out measurements from PubChem BioAssay (NCI).

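Where inhibition never reached the appropriate level, the endpoint shown equals the highest concentration tested. Otherwise, values were interpolated linearly from a five-concentration, 48-hour dose response in 96-well plates. At the GI50, growth is halved. TGI denotes the concentration required for complete inhibition of growth.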 Bounds are passed on as bounds.

Test in all cases: NCI-60 cell line screen, 48 h
Assay [1] has as its system HCC-2998 colon.
Assay [2] deals with 786-0 renal.
Assay [3] relates to HCT-15 colon.
For assay [4], the system named is MOLT-4 leukemia.
The subject of assay [5] is U251 CNS.
Assay [6] has as its system OVCAR-5 ovarian.
The test system of assay [7] is SF-539 CNS.
The test system of assay [8] is NCI-H460 lung.
The subject of assay [9] is RXF 393 renal.
Assay [10] has as its system UACC-257 melanoma.

Take `c1cnc2nc3n(c2c1)CSC3`: the TGI in assay [1], in assay [2], in assay [3], in assay [4], in assay [5] and in [6] was greater than 100 µM throughout. Further, the TGI in [7], in assay [8], in assay [9] and in assay [10] was greater than 100 µM each time.
For the compound `O=C1NC(Cc2ccccc2)C(=O)N2CCCC12` (stereo not given), the TGI in [1], in assay [2], in assay [3], in [4], in assay [5] and in [6] was greater than 100 µM throughout. Further, the TGI in assay [7], in [8], in [9] and in assay [10] was greater than 100 µM throughout.
`COC1/C=C/OC2(C)Oc3c(C)c(O)c4c(O)c(c(C=NOC(c5ccccc5)c5ccccc5)c(O)c4c3C2=O)NC(=O)/C(C)=C/C=C/C(C)C(O)C(C)C(O)C(C)C(OC(C)=O)C1C` (stereo not given): the GI50 was 0.97 µM in assay [1]; 1.29 µM in assay [2]; 1.17 µM in assay [3]; 1.8 µM in assay [4]; 0.975 µM in [5]; 0.984 µM in [6]. Also, the GI50 in assay [7] was 0.979 µM; in [8], 1.05 µM; in [9], 0.943 µM; in assay [10] it was 1.14 µM. Also, the TGI in [1] came out at 1.93 µM; in assay [2], 3.06 µM; in assay [3], 2.96 µM; in [4], 8.03 µM; in [5], 1.96 µM; in [6], 2.49 µM. Further, the TGI in assay [7] was 1.95 µM; in [8], 2.18 µM; in [9], 1.74 µM; in assay [10], 3.08 µM.
Turning to `CC(O)c1ccc(C(O)/C(=N\NC(=O)c2ccncc2)c2nc3ccc([N+](=O)[O-])cc3[nH]c2=O)cc1` (stereo not given), the TGI in assay [1], in [2], in [3], in assay [4], in [5] and in assay [6] was greater than 100 µM throughout. In addition, the TGI in assay [7], in assay [8], in assay [9] and in [10] was greater than 100 µM in each case.
Take `Nc1nc(Cl)nc2c1ncn2C1OC(CO)C(O)C1O` (stereo not given): the GI50 in assay [1] was greater than 21.9 µM; in assay [2], 2.57 µM; in [3], 7.57 µM; in [4], 0.493 µM; in assay [5] it was 13.2 µM; in assay [6], 86.9 µM. The GI50 in assay [7] was greater than 90.1 µM; in [8] it was 12.6 µM; in [9], greater than 100 µM; in assay [10], greater than 100 µM. The TGI in assay [1] was greater than 100 µM; in [2], greater than 73.4 µM; in assay [3], greater than 100 µM; in assay [4] it was greater than 41.2 µM; in assay [5], greater than 100 µM; in [6], greater than 100 µM. For the same compound, the TGI in assay [7], in [8], in assay [9] and in assay [10] was greater than 100 µM each time.
On to `O=[P+](O)c1cccnc1`, for which the TGI in [1], in assay [2], in assay [3], in assay [4], in assay [5] and in [6] was greater than 100 µM throughout. The TGI in assay [7], in [8], in assay [9] and in assay [10] was greater than 100 µM throughout.
For `O=C(O)c1ccccc1C1c2ccc(Cl)cc2Oc2cc(Cl)ccc21`, the TGI in [1], in assay [2], in assay [3], in assay [4], in [5] and in assay [6] was greater than 100 µM throughout. Besides, the TGI in [7], in assay [8], in assay [9] and in assay [10] was greater than 100 µM throughout.
As for `CC/C(=C(/CC)c1ccc(O)cc1)c1ccc(O)cc1`, the GI50 in assay [1] is 10.7 µM; in assay [2], 5.59 µM; in assay [3] it was 4.79 µM; in assay [4], 5.29 µM; in assay [5], 4.91 µM; in assay [6] it was 14.1 µM. In addition, the GI50 is 5.84 µM in assay [7], 4.05 µM in assay [8], 6.72 µM in assay [9] and 7.04 µM in assay [10]. In addition, the TGI in assay [1] stood at 23.3 µM; in assay [2], 18.6 µM; in assay [3], 20 µM; in assay [4], 66.4 µM; in assay [5], 18.2 µM; in assay [6], 30.1 µM. The TGI in [7] came to 19.7 µM; in assay [8], 15.2 µM; in assay [9], 21.8 µM; in assay [10], 22.7 µM.
On to `O=C(c1ccccc1)c1c2n(c3c1cc(O)c1ccccc13)CCN2`, for which the GI50 in [1] is 6.11 µM; in assay [2], 9.23 µM; in [3], 6.5 µM; in assay [4] it was 2.06 µM; in assay [5] it was 1.78 µM; in assay [6] it was 0.72 µM. Besides, the GI50 in assay [7] was 2.39 µM; in assay [8], 4.7 µM; in assay [9] it was 11.1 µM; in assay [10] it was 1.91 µM. Moreover, the TGI worked out at 18.9 µM in [1]; 31.2 µM in assay [2]; 19.1 µM in assay [3]; 4.45 µM in [4]; 3.4 µM in assay [5]; 7.91 µM in assay [6]. For the same compound, the TGI came to 6.04 µM in assay [7], 15.8 µM in assay [8], 27.1 µM in [9] and 3.4 µM in assay [10].
In the case of `Cc1nc(-n2nc(-c3ccccc3)cc2-c2ccccc2)sc1C(/C=C/c1ccc([N+](=O)[O-])cc1)=N/NC(N)=S`, the TGI is 74 µM in assay [1]; 43.6 µM in [2]; greater than 100 µM in assay [3]; 81.4 µM in assay [4]; greater than 100 µM in assay [5]; greater than 100 µM in [6]. Also, the TGI in assay [7], in assay [8], in assay [9] and in assay [10] was greater than 100 µM throughout.
With `Cc1ccc(S(=O)(=O)OC2CSSCC2OS(=O)(=O)c2ccc(C)cc2)cc1` (stereo not given), the TGI was 35.5 µM in [1]; 25.1 µM in [2]; 22.5 µM in assay [3]; 7.61 µM in assay [4]; 27.2 µM in assay [5]; 38 µM in assay [6]. Also, the TGI in assay [7] amounted to 22.8 µM; in [8], 31.8 µM; in assay [9], 37.7 µM; in assay [10], 22.8 µM.
For `COC(=O)[C@H](C)[C@@H]1CC[C@](C)(CCC2=C(C)CCCC2(C)C)OO1`, the TGI in [1], in assay [2], in [3], in [4], in assay [5] and in assay [6] was greater than 25 µM in each case. For the same compound, the TGI in assay [7], in [8], in assay [9] and in assay [10] was greater than 25 µM throughout.
On to `NNc1ncnc2cccc(Cl)c12`, for which the TGI in [1], in assay [2], in assay [3], in [4], in assay [5] and in assay [6] was greater than 100 µM throughout. The TGI in assay [7], in assay [8], in assay [9] and in assay [10] was greater than 100 µM in each case.
On to `Cn1cc(-c2ccc3nnc(C(F)(F)c4ccc5ncccc5c4)n3n2)cn1`, for which the GI50 is greater than 100 µM in [1]; 46 µM in assay [2]; 73 µM in [3]; 52.5 µM in [4]; 58.4 µM in [5]; 71.9 µM in [6]. For the same compound, the GI50 in assay [7] was 47.5 µM; in assay [8] it was 59.6 µM; in [9], 25.9 µM; in assay [10], greater than 100 µM. In addition, the TGI in assay [1], in [2], in assay [3], in assay [4], in [5] and in assay [6] was greater than 100 µM throughout. The TGI in assay [7] is greater than 100 µM; in assay [8], greater than 100 µM; in assay [9], greater than 86.6 µM; in assay [10], greater than 100 µM.
Consider `CCOC(=O)Cn1c(=O)[nH]c(=O)c2[nH]cnc21`, for which the TGI in [1], in assay [2], in assay [3], in [4], in [5] and in assay [6] was greater than 100 µM in each case. Moreover, the TGI in assay [7], in [8], in [9] and in assay [10] was greater than 100 µM throughout.
As for `C=C(C)C1CCC2(C(=O)O)CCC3(C)C(CCC4C5(C)CCC(O)C(C)(C)C5CCC43C)C12` (stereo not given), the TGI in assay [1] is 24.7 µM; in [2] it was 25.2 µM; in [3], 23.5 µM; in [4], 26.5 µM; in [5], 22 µM; in assay [6], 26.1 µM. The TGI came to 16.7 µM in assay [7], 39 µM in [8], 5.99 µM in [9] and 21.8 µM in [10].
